The values below come from US9399646B2 (Genentech, Inc., priority 2010, dated 2016).

SMILES strings stand for the structures. pIC50: −log10 of the molar value.

One test has as its system MCF-7 cells. Description: Breast cancer cell viability assay (CellTiter-Glo, 5 days). The class given is cell-based. To be noted: 5 days' compound exposure; for pIC50: Homo sapiens, MCF7, 120 h. The method, boiled down: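 Eleven-point semilog compound series, final 0.3-0.000003 μM, added to overnight-adhered MCF-7 cells (320/well; RPMI, 10% FBS, 20 mM HEPES) for 5 days. Viability read by CellTiter-Glo luminescence, background from medium without cells subtracted, expressed relative to untreated cells.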
A general note: ATP-based viability assays read luminescence as a measure of living cells.

The target in a further test is T1, ER-α in MCF-7 cells (Homo sapiens, UniProt P03372).
T1 sequence (P03372 1-595): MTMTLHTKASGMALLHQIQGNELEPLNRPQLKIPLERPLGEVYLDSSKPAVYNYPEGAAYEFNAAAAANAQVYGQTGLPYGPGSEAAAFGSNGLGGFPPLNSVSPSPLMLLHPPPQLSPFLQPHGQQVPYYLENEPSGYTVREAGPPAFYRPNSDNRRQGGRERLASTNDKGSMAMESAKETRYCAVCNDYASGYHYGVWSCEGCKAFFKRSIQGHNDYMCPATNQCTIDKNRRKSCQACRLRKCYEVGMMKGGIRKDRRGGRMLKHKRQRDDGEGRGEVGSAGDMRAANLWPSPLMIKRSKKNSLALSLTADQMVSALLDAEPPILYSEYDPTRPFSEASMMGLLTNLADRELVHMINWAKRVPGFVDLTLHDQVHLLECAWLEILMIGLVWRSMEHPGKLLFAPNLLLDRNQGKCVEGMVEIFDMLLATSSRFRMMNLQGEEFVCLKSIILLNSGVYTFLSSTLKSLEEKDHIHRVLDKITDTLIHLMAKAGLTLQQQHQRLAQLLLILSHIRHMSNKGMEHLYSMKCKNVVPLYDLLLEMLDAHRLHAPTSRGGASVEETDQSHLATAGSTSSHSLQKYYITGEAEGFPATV
Description: Breast cancer cell ER-α in cell western assay (SP1). The class given is cell-based. Set-up: endogenous in cells; host or cells: MCF-7. The conditions noted are these: 4 or 24 hr post compound addition; for Emax: MCF7, SP1 antibody, read-out: ER-α In Cell Western Assay (SP1) Max Response; for DC50: SP1 antibody, read-out: ER-α In Cell Western Assay (SP1) IC50. The procedure, abridged: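 ER-α protein levels were measured in MCF-7 cells after 4 or 24 hr compound exposure (final 0.3–0.000003 μM) in RPMI containing 10% charcoal-stripped FBS.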

The term pIC50 denotes −log10 of the IC50, conventionally taken in molar units. High values mean a small IC50, low ones a large IC50. Take `CC/C(=C(/c1ccc(/C=C/C(=O)O)cc1)c1ccc2[nH]ncc2c1)c1ccc(-c2cncnc2)cc1` [Compound 383, (E)-3-(4-((E)-1-(1H-Indazol-5-yl)-2-(4-(pyrimidin-5-yl)phenyl)but-1-en-1-yl)phenyl)acrylic acid]: in the test on MCF-7 cells, the “MCF7 Viability Assay Max Response” value was “++ (++ = a single % value ≧ 40%)” and the pIC50 is less than 7.00. Moreover, on ER-α in MCF-7 cells, the Emax is no less than 40% and the DC50 was greater than 100 nM.

Take `O=C(/C=C/c1ccc(/C(=C(\c2ccccc2)C2CCC2)c2ccc3[nH]nc(F)c3c2)cc1)NC1CC1` [Compound 413, (E)-3-(4-((E)-2-Cyclobutyl-1-(3-fluoro-1H-indazol-5-yl)-2-phenylvinyl)phenyl)-N-cyclopropylacrylamide]: in the test with MCF-7 cells, the “MCF7 Viability Assay Max Response” value is recorded as “++ (++ = a single % value ≧ 40%)” and the pIC50 is no less than 7.00. Besides, on ER-α in MCF-7 cells, the Emax was no less than 40% and the DC50 was no more than 100 nM.

Turning to `CC/C(=C(/c1ccc(/C=C/C(=O)O)cc1)c1ccc2scnc2c1)c1cccc(Oc2cnccn2)c1` [Compound 301, (E)-3-(4-((E)-1-(Benzo[d]thiazol-5-yl)-2-(3-(pyrazin-2-yloxy)phenyl)but-1-en-1-yl)phenyl)acrylic acid], in the test on MCF-7 cells, the “MCF7 Viability Assay Max Response” value is reported as “++ (++ = a single % value ≧ 40%)” and the pIC50 was less than 7.00. Besides, on ER-α in MCF-7 cells, the Emax is no less than 40% and the DC50 is no more than 100 nM.

Turning to `CC/C(=C(/c1ccc(/C=C/C(=O)O)cc1)c1ccc2nccn2c1)c1ccccc1` [Compound 126, (E)-3-(4-((E)-1-(Imidazo[1,2-a]pyridin-6-yl)-2-phenylbut-1-en-1-yl)phenyl)acrylic acid], in the test with MCF-7 cells, the “MCF7 Viability Assay Max Response” value is on record as “++ (++ = a single % value ≧ 40%)” and the pIC50 was less than 7.00. Further, on ER-α in MCF-7 cells, the Emax was no less than 40% and the DC50 was no more than 100 nM.

Take `CC/C(=C(/c1ccc(/C=C/C(=O)O)cc1)c1ccc2[nH]ncc2c1)c1ccc2nccn2c1` [Compound 260, (E)-3-(4-((E)-2-(Imidazo[1,2-a]pyridin-6-yl)-1-(1H-indazol-5-yl)but-1-en-1-yl)phenyl)acrylic acid]: in the test on MCF-7 cells, the “MCF7 Viability Assay Max Response” value is given as “+ (+ = a single % value < 40%)” and the pIC50 was less than 7.00. Further, on ER-α in MCF-7 cells, the Emax is less than 40% and the DC50 is greater than 100 nM.

For `CC/C(=C(/c1ccc(/C=C/C(=O)O)cc1)c1ccc2c(cnn2-c2cccnc2)c1)c1ccccc1` [Compound 145, (E)-3-(4-((E)-2-Phenyl-1-(1-(pyridin-3-yl)-1H-indazol-5-yl)but-1-en-1-yl)phenyl)acrylic acid], in the test with MCF-7 cells, the “MCF7 Viability Assay Max Response” value is on record as “++ (++ = a single % value ≧ 40%)” and the pIC50 was less than 7.00. On ER-α in MCF-7 cells, the Emax is no less than 40% and the DC50 is greater than 100 nM.

As to `CC/C(=C(/c1ccc(/C=C/C(=O)O)cc1)c1ccc2[nH]ncc2c1F)c1ccc(Oc2cnccn2)cc1` [Compound 161, (E)-3-(4-((E)-1-(4-Fluoro-1H-indazol-5-yl)-2-(4-(pyrazin-2-yloxy)phenyl)but-1-en-1-yl)phenyl)acrylic acid], in the test on MCF-7 cells, the “MCF7 Viability Assay Max Response” value is reported as “++ (++ = a single % value ≧ 40%)” and the pIC50 is no less than 7.00. Moreover, at ER-α in MCF-7 cells, the Emax was no less than 40% and the DC50 is no more than 100 nM.

On to `O=C(O)/C=C/c1ccc(/C(=C(/CCF)c2ccncc2Cl)c2ccc3[nH]ncc3c2)cc1` [Compound 230, (E)-3-(4-((E)-2-(3-Chloropyridin-4-yl)-4-fluoro-1-(1H-indazol-5-yl)but-1-en-1-yl)phenyl)acrylic acid], for which, in the test on MCF-7 cells, the “MCF7 Viability Assay Max Response” value was “++ (++ = a single % value ≧ 40%)” and the pIC50 was no less than 7.00. Besides, on ER-α in MCF-7 cells, the Emax is no less than 40% and the DC50 is no more than 100 nM.

For `CC/C(=C(/c1ccc(/C=C/C(=O)NS(C)(=O)=O)cc1)c1ccc2[nH]ncc2c1)c1ccc(F)cc1Cl` [Compound 408, (E)-3-(4-((E)-2-(2-Chloro-4-fluorophenyl)-1-(1H-indazol-5-yl)but-1-en-1-yl)phenyl)-N-(methylsulfonyl)acrylamide], in the test on MCF-7 cells, the “MCF7 Viability Assay Max Response” value is listed as “++ (++ = a single % value ≧ 40%)” and the pIC50 was no less than 7.00. Further, at ER-α in MCF-7 cells, the Emax was no less than 40% and the DC50 was no more than 100 nM.

Consider `CC/C(=C(/c1ccc(/C=C/C(=O)O)cc1)c1ccc2[nH]ncc2c1)c1ccc(Oc2ccccc2)c(C)c1` [Compound 320, (E)-3-(4-((E)-1-(1H-Indazol-5-yl)-2-(3-methyl-4-phenoxyphenyl)but-1-en-1-yl)phenyl)acrylic acid], for which, in the test with MCF-7 cells, the “MCF7 Viability Assay Max Response” value is “++ (++ = a single % value ≧ 40%)” and the pIC50 was no less than 7.00. Further, on ER-α in MCF-7 cells, the Emax was no less than 40% and the DC50 was no more than 100 nM.

In the case of `CC/C(=C(/c1ccc(/C=C/C(=O)O)cc1)c1ccnc2[nH]ncc12)c1ccccc1` [Compound 56, (E)-3-(4-((E)-2-Phenyl-1-(1H-pyrazolo[3,4-b]pyridin-4-yl)but-1-en-1-yl)phenyl)acrylic acid], in the test with MCF-7 cells, the “MCF7 Viability Assay Max Response” value is “++ (++ = a single % value ≧ 40%)” and the pIC50 was less than 7.00. Also, at ER-α in MCF-7 cells, the Emax was no less than 40% and the DC50 is no more than 100 nM.

Turning to `CC/C(=C(/c1ccc(/C=C/C(=O)O)cc1)c1ccc2[nH]ncc2c1)c1ccc2c(c1)N(C)C(=O)CO2` [Compound 262, (E)-3-(4-((E)-1-(1H-Indazol-5-yl)-2-(4-methyl-3-oxo-3,4-dihydro-2H-benzo[b][1,4]oxazin-6-yl)but-1-en-1-yl)phenyl)acrylic acid], in the test with MCF-7 cells, the “MCF7 Viability Assay Max Response” value was “++ (++ = a single % value ≧ 40%)” and the pIC50 is less than 7.00. For the same compound, on ER-α in MCF-7 cells, the Emax was no less than 40% and the DC50 was greater than 100 nM.

With `CC/C(=C(/c1ccc(/C=C/C(=O)O)cc1)c1ccc2[nH]ncc2c1F)c1cccc(Oc2ncccn2)c1` [Compound 376, (E)-3-(4-((E)-1-(4-Fluoro-1H-indazol-5-yl)-2-(3-(pyrimidin-2-yloxy)phenyl)but-1-en-1-yl)phenyl)acrylic acid], in the test on MCF-7 cells, the “MCF7 Viability Assay Max Response” value is reported as “++ (++ = a single % value ≧ 40%)” and the pIC50 was no less than 7.00. In addition, on ER-α in MCF-7 cells, the Emax is no less than 40% and the DC50 is no more than 100 nM.

As to `CC/C(=C(/c1ccc(/C=C/C(=O)O)cc1)c1ccc2[nH]ncc2c1)c1ccccn1` [Compound 25, (E)-3-(4-((E)-1-(1H-Indazol-5-yl)-2-(pyridin-2-yl)but-1-en-1-yl)phenyl)acrylic acid], in the test with MCF-7 cells, the “MCF7 Viability Assay Max Response” value is on record as “++ (++ = a single % value ≧ 40%)” and the pIC50 is less than 7.00. At ER-α in MCF-7 cells, the Emax is no less than 40% and the DC50 was greater than 100 nM.

For `CC/C(=C(/c1ccc(/C=C/C(=O)O)cc1)c1ccc2[nH]ncc2c1)c1ccc(C)c(Oc2ccccc2)c1` [Compound 318, (E)-3-(4-((E)-1-(1H-Indazol-5-yl)-2-(4-methyl-3-phenoxyphenyl)but-1-en-1-yl)phenyl)acrylic acid], in the test with MCF-7 cells, the “MCF7 Viability Assay Max Response” value is listed as “++ (++ = a single % value ≧ 40%)” and the pIC50 was less than 7.00. Besides, on ER-α in MCF-7 cells, the Emax was no less than 40% and the DC50 was no more than 100 nM.

Consider `CC/C(=C(/c1ccc(/C=C/C(=O)O)cc1)c1ccc2cccnc2c1)c1ccc(F)cc1Cl` [Compound 289, (E)-3-(4-((E)-2-(2-Chloro-4-fluorophenyl)-1-(quinolin-7-yl)but-1-en-1-yl)phenyl)acrylic acid], for which, in the test with MCF-7 cells, the “MCF7 Viability Assay Max Response” value was “++ (++ = a single % value ≧ 40%)” and the pIC50 was less than 7.00. For the same compound, at ER-α in MCF-7 cells, the Emax is no less than 40% and the DC50 was no more than 100 nM.

For `CC/C(=C(/c1ccc(/C=C/C(=O)O)cc1)c1ccc(O)nc1)c1ccccc1` [Compound 152, (E)-3-(4-((E)-1-(6-Hydroxypyridin-3-yl)-2-phenylbut-1-en-1-yl)phenyl)acrylic acid], in the test on MCF-7 cells, the “MCF7 Viability Assay Max Response” value is recorded as “+ (+ = a single % value < 40%)” and the pIC50 was less than 7.00. Moreover, at ER-α in MCF-7 cells, the Emax is no less than 40%.

For the compound `CC/C(=C(/c1ccc(/C=C/C(=O)O)cc1)c1ccn2cncc2c1)c1ccccc1` [Compound 135, (E)-3-(4-((E)-1-(Imidazo[1,5-a]pyridin-7-yl)-2-phenylbut-1-en-1-yl)phenyl)acrylic acid], in the test on MCF-7 cells, the “MCF7 Viability Assay Max Response” value was “+ (+ = a single % value < 40%)” and the pIC50 was no less than 7.00. At ER-α in MCF-7 cells, the Emax was no less than 40% and the DC50 is greater than 100 nM.

In the case of `CC/C(=C(/c1ccc(/C=C/C(=O)O)cc1)c1ccc2nn(C(F)F)cc2c1)c1ccc(F)cc1Cl` [Compound 402, (E)-3-(4-((E)-2-(2-Chloro-4-fluorophenyl)-1-(2-(difluoromethyl)-2H-indazol-5-yl)but-1-en-1-yl)phenyl)acrylic acid], in the test on MCF-7 cells, the “MCF7 Viability Assay Max Response” value was “++ (++ = a single % value ≧ 40%)” and the pIC50 was no less than 7.00. Moreover, at ER-α in MCF-7 cells, the Emax was no less than 40% and the DC50 is no more than 100 nM.
